Test results reported in US20250154146A1, “PROTEIN DEGRADERS DEVELOPED ON BASIS OF BCL-2 FAMILY PROTEIN LIGAND COMPOUNDS AND USE THEREOF” (ShanghaiTech University, priority 2022, published 2025).

Columns and labels:
Type in all cases: cell-based
Molt-4 cells = assay: Thiazolyl blue cell proliferation assay in Molt-4 cells; conditions: Homo sapiens, Molt-4 acute lymphocytic leukemia cells, 72 hours, read-out: IC50 (nM) for inhibiting the proliferation of Molt-4 cells
Source text: (§1) The cell lines RS4;11 (human acute lymphocytic leukemia cells), Molt-4 cells (human acute lymphocytic leukemia cells), MV4;11 (human myeloid monocytic leukemia cells), and Light II cells were commercially available or purchased from ATCC (American Type Culture Collection) and routinely cultured according to instructions.
3) Study on the proliferation inhibition effects induced by the compounds of the present disclosure designed based on ABT199/263 against BCL-XL-dependent Molt-4 cells:
(§2) The specific steps were as follows: Molt-4 cells were seeded at a density of 2×10^4 cells/well in 180 μL of serum-containing RPMI 1640 culture medium. DT2216 and the compounds of the present disclosure were added to the cell suspension at corresponding concentration gradients. DT2216 and DMSO were used as positive and vehicle control, respectively. The positive control and negative control were treated with the same treatment method as the compounds of the present disclosure. After treating the cells with the compounds of the present disclosure for 72 hours, thiazole blue solution (5 mg/mL) was added at 20 μL/well to the cell suspension, followed by incubation for 3 hours at 37° C. in an incubator with 5% CO2. Then, triple solution (0.1 g/mL SDS, 5% isopropyl alcohol, 10 mM hydrochloric acid) was added, followed by incubation for 4-6 hours at 37° C. in an incubator with 5% CO2. After confirming that all the crystal violets were dissolved under inverted biological microscopy, the absorbance was measured at 490 nm using an Epoch microplate reader (Biotek Corporation). The growth inhibition of the compounds of the present disclosure on the cells was plotted by GraphPad Prism 8 software, and the IC50 values of the compounds of the present disclosure were calculated therefrom. The experiment had 3 replicates per group and was repeated at least three times.

[1] = tested on: Hedgehog (Hh) signaling pathway; assay: Dual-luciferase reporter assay of Hedgehog activity in Light II cells; conditions: SAG stimulation, 36 h, dual-luciferase assay reporter kit, read-out: IC50 (nM) in Light II cells (inhibiting Hedgehog activity)
Procedure: Determination of the IC50 Values of Compounds Inhibiting Hedgehog Activity—Dual-Luciferase Reporter Assay:
Light II cells were NIH3T3 cell lines that stably express the Gli-luciferase and TK-renilla reporters. They were cultured with DMEM medium containing 10% (v/v) fetal bovine serum (FBS), 0.4 mg/ml G418, 0.15 mg/ml bleomycin (Zeocin), and penicillin/streptomycin at 37° C. in an incubator with 5% CO2. Light II cells in the logarithmic growth phase were seeded at a density of 2.5×10^4 cells/well in a 96-well plate. After 24h incubation, the cells were subjected to treatment with SAG with or without different concentrations of the compounds of the present disclosure for 36 h. After that, the Hedgehog activity was measured using the dual fluorescence reporter kit according to its instructions. The experiment had 3 replicates per group and was repeated at least three times.

RS4;11 cells = assay: Thiazolyl blue cell proliferation assay in RS4;11 cells; conditions: Homo sapiens, RS4;11 acute lymphoblastic leukemia cells, 48 hours, read-out: IC50 (nM) for inhibiting the proliferation of RS4;11 cells
Source text: as §1
1) Study on the proliferation inhibition effects induced by the compounds of the present disclosure designed based on ABT199/263 against BCL-XL-dependent RS4;11 cells:
as §2, with “RS4;11” for “Molt-4”, “3×10^4” for “2×10^4”, “90” for “180”, “RPMI-1640” for “RPMI 1640”, “48” for “72”, “10” for “20”
We conducted dose-dependent experiments on the designed and synthesized compounds of the present disclosure in RS4;11 cells, which are highly sensitive to BCL-XL inhibitors. The cells were treated with 7 different concentrations (starting at the highest concentration of 1000 nM or 100 nM; 10-fold serial dilutions) of the compounds for 48 hours, and then tested using the thiazolyl blue cell proliferation assay.

MV4;11 cells = assay: Thiazolyl blue cell proliferation assay in MV4;11 cells; conditions: Homo sapiens, MV4;11 myeloid monocytic leukemia cells, 48 hours, read-out: IC50 (nM) for inhibiting the proliferation of MV4;11 cells
Source text: as §1
2) Study on the proliferation inhibition effects induced by the compounds of the present disclosure designed based on ABT199/263 against BCL-XL-dependent MV4;11 cells:
as §2, with “MV4;11” for “Molt-4”, “90” for “180”, “IMDM” for “RPMI 1640”, “48” for “72”, “10 µL/well” for “20 μL/well”

Row | IC50 (Molt-4 cells) [nM] | IC50 [1] [nM] | IC50 (RS4;11 cells) [nM] | IC50 (MV4;11 cells) [nM] | Structure (SMILES)
1 | < 10 | < 10 | < 20 | < 20 | C[C@H]1CN([C@H]2CC[C@@H](CNc3ccc(S(=O)(=O)NC(=O)c4ccc(N5CCN(CC6=C(c7ccc(Cl)cc7)CC(C)(C)CC6)CC5)cc4Oc4cnc5[nH]ccc5c4)cc3[N+](=O)[O-])CC2)CCN1Cc1ccc2c(c1)CN(C1CCC(=O)NC1=O)C2=O (stereo partly drawn) [BCL-03165, 2-((1H-pyrrolo[2,3-b]pyridin-5-yl)oxy)-4-(4-((4′-chloro-5,5-dimethyl-3,4,5,6-tetrahydro-[1,1′-biphenyl]-2-yl)methyl)piperazin-1-yl)-N-((4-((((cis)-4-((3S)-4-((2-(2,6-dioxopiperidin-3-yl)-1-oxoisoindolin-5-yl)methyl)-3-methylpiperazin-1-yl)cyclohexyl)methyl)amino)-3-nitrophenyl)sulfonyl)benzamide]
2 | < 10 | < 10 | < 20 | < 20 | C[C@H]1CN([C@H]2CC[C@H](CNc3ccc(S(=O)(=O)NC(=O)c4ccc(N5CCN(CC6=C(c7ccc(Cl)cc7)CC(C)(C)CC6)CC5)cc4Oc4cnc5[nH]ccc5c4)cc3[N+](=O)[O-])CC2)CCN1Cc1ccc2c(c1)CN(C1CCC(=O)NC1=O)C2=O (stereo partly drawn) [BCL-03166, 2-((1H-pyrrolo[2,3-b]pyridin-5-yl)oxy)-4-(4-((4′-chloro-5,5-dimethyl-3,4,5,6-tetrahydro-[1,1′-biphenyl]-2-yl)methyl)piperazin-1-yl)-N-((4-((((trans)-4-((3S)-4-((2-(2,6-dioxopiperidin-3-yl)-1-oxoisoindolin-5-yl)methyl)-3-methylpiperazin-1-yl)cyclohexyl)methyl)amino)-3-nitrophenyl)sulfonyl)benzamide]
3 | < 10 | < 10 | < 20 | < 20 | C[C@@H]1CN([C@H]2CC[C@@H](CNc3ccc(S(=O)(=O)NC(=O)c4ccc(N5CCN(CC6=C(c7ccc(Cl)cc7)CC(C)(C)CC6)CC5)cc4Oc4cnc5[nH]ccc5c4)cc3[N+](=O)[O-])CC2)CCN1Cc1ccc2c(c1)CN(C1CCC(=O)NC1=O)C2=O (stereo partly drawn) [BCL-03167, 2-((1H-pyrrolo[2,3-b]pyridin-5-yl)oxy)-4-(4-((4′-chloro-5,5-dimethyl-3,4,5,6-tetrahydro-[1,1′-biphenyl]-2-yl)methyl)piperazin-1-yl)-N-((4-((((cis)-4-((3R)-4-((2-(2,6-dioxopiperidin-3-yl)-1-oxoisoindolin-5-yl)methyl)-3-methylpiperazin-1-yl)cyclohexyl)methyl)amino)-3-nitrophenyl)sulfonyl)benzamide]
4 | < 10 | < 10 | < 20 | < 20 | C[C@@H]1CN([C@H]2CC[C@H](CNc3ccc(S(=O)(=O)NC(=O)c4ccc(N5CCN(CC6=C(c7ccc(Cl)cc7)CC(C)(C)CC6)CC5)cc4Oc4cnc5[nH]ccc5c4)cc3[N+](=O)[O-])CC2)CCN1Cc1ccc2c(c1)CN(C1CCC(=O)NC1=O)C2=O (stereo partly drawn) [BCL-03168, 2-((1H-pyrrolo[2,3-b]pyridin-5-yl)oxy)-4-(4-((4′-chloro-5,5-dimethyl-3,4,5,6-tetrahydro-[1,1′-biphenyl]-2-yl)methyl)piperazin-1-yl)-N-((4-((((trans)-4-((3R)-4-((2-(2,6-dioxopiperidin-3-yl)-1-oxoisoindolin-5-yl)methyl)-3-methylpiperazin-1-yl)cyclohexyl)methyl)amino)-3-nitrophenyl)sulfonyl)benzamide]
5 | < 10 | < 10 | < 20 | < 20 | C[C@H]1CN([C@H]2CC[C@@H](CNc3ccc(S(=O)(=O)NC(=O)c4ccc(N5CCN(CC6=C(c7ccc(Cl)cc7)CC(C)(C)CC6)CC5)cc4Oc4cnc5[nH]ccc5c4)cc3[N+](=O)[O-])CC2)CCN1Cc1cc(Br)c2c(c1)C(=O)N(C1CCC(=O)NC1=O)C2 (stereo partly drawn) [BCL-03169, 2-((1H-pyrrolo[2,3-b]pyridin-5-yl)oxy)-N-((4-((((cis)-4-((3S)-4-((7-bromo-2-(2,6-dioxopiperidin-3-yl)-3-oxoisoindolin-5-yl)methyl)-3-methylpiperazin-1-yl)cyclohexyl)methyl)amino)-3-nitrophenyl)sulfonyl)-4-(4-((4′-chloro-5,5-dimethyl-3,4,5,6-tetrahydro-[1,1′-biphenyl]-2-yl)methyl)piperazin-1-yl)benzamide]
6 | < 10 | < 10 | < 20 | < 20 | CC1(C)CCC(c2ccc(Cl)cc2)=C(CN2CCN(c3ccc(C(=O)NS(=O)(=O)c4ccc(N[C@H](CCN5CCN(Cc6ccc7c(c6)CN(C6CCC(=O)NC6=O)C7=O)CC5)CSc5ccccc5)c(S(=O)(=O)C(F)(F)F)c4)cc3)CC2)C1 (stereo partly drawn) [BCL-03177, 4-(4-((4′-chloro-4,4-dimethyl-3,4,5,6-tetrahydro-[1,1′-biphenyl]-2-yl)methyl)piperazin-1-yl)-N-((4-(((2R)-4-(4-((2-(2,6-dioxopiperidin-3-yl)-1-oxoisoindolin-5-yl)methyl)piperazin-1-yl)-1-(phenylthio)butan-2-yl)amino)-3-((trifluoromethyl)sulfonyl)phenyl)sulfonyl)benzamide]
7 | < 10 | < 10 | < 20 | < 20 | CC1(C)CCC(c2ccc(Cl)cc2)=C(CN2CCN(c3ccc(C(=O)NS(=O)(=O)c4ccc(N[C@H](CCN5CCN(Cc6ccc7c(c6)C(=O)N(C6CCC(=O)NC6=O)C7=O)CC5)CSc5ccccc5)c(S(=O)(=O)C(F)(F)F)c4)cc3)CC2)C1 (stereo partly drawn) [BCL-03189, 4-(4-((4′-chloro-4,4-dimethyl-3,4,5,6-tetrahydro-[1,1′-biphenyl]-2-yl)methyl)piperazin-1-yl)-N-((4-(((2R)-4-(4-((2-(2,6-dioxopiperidin-3-yl)-1,3-dioxoisoindolin-5-yl)methyl)piperazin-1-yl)-1-(phenylthio)butan-2-yl)amino)-3-((trifluoromethyl)sulfonyl)phenyl)sulfonyl)benzamide]
